Consider 6 molecules from patent US20140135310A1, “SULPHONAMIDE DERIVATIVES OF ALICYCLIC AMINES FOR THE TREATMENT OF CENTRAL NERVOUS SYSTEM DISEASES” (Adamed Sp. z o.o., priority 2011, published 2014).

pIC50: −log10 of the molar value. Where two headings read alike, the source gives them in different places.

In general, pIC50 refers to the negative decadic logarithm of the IC50, by convention in mol/L.

Assay [1] deals with D2 dopaminergic receptors (Homo sapiens, UniProt P14416). Kind of assay: Cellular functional assay, D2 dopaminergic receptors. The settings on record: D2S (h), HEK-293 cells; for D2 ag [%]: agonism, percent of control specific agonist response (3 μM dopamine for control); for D2 antag [%]: antagonism, stimulus dopamine (30 nM). The format is cell-based. Put shortly:
(§1)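 Responses expressed as percent of control specific agonist response; EC50 or IC50 from Hill-equation nonlinear fits of mean replicate concentration-response curves. For antagonists, Kb derived by modified Cheng-Prusoff using reference agonist concentration and its EC50.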

Assay [2] addresses D3 dopaminergic receptors (Homo sapiens, UniProt P35462). Kind of assay: Cellular functional assay, D3 dopaminergic receptors. The format is cell-based. The settings on record: D3 (h), CHO cells; for D3 ag [%]: agonism, percent of control specific agonist response (0.3 μM dopamine for control); for D3 antag [%]: antagonism, stimulus dopamine (10 nM). Put shortly:
as §1

For assay [3], the target named is T1, 5-HT1A serotoninergic receptors (Homo sapiens, UniProt P08908).
T1 sequence (P08908 1-422): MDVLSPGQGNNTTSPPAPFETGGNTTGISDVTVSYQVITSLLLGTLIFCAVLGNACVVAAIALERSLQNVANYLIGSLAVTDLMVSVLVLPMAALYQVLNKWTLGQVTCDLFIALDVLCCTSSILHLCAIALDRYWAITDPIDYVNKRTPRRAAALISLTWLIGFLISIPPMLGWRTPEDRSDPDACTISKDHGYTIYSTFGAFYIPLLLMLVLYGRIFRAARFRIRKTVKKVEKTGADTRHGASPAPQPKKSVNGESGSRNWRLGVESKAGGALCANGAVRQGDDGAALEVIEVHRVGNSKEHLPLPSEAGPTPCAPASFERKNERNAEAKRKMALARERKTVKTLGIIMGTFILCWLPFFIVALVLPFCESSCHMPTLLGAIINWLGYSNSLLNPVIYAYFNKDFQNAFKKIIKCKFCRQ
Kind of assay: Cellular functional assay, 5-HT1A serotoninergic receptors. It counts as cell-based. The settings on record: agonist mode; percent of control specific agonist response. The procedure:
(§2) The results are expressed as a percent of control specific agonist response ((measured specific response/control specific agonist response)×100) obtained in the presence of the test compounds.
(§3) The EC50 values (concentration producing a half-maximal specific response) and IC50 values (concentration causing a half-maximal inhibition of the control specific agonist response) were determined by non-linear regression analysis of the concentration-response curves generated with mean replicate values using Hill equation curve fitting (Y=D+[(A−D)/(1+(C/C50)nH)], where Y=specific response, D=minimum specific response, A=maximum specific response, C=compound concentration, and C50=EC50 or IC50, and nH=slope factor). This analysis was performed using a software developed at Cerep (Hill software) and validated by comparison with data generated by the commercial software SigmaPlot® 4.0 for Windows® (© 1997 by SPSS Inc.).
(§4) For the antagonists, the apparent dissociation constants (Kb) were calculated using the modified Cheng Prusoff equation (Kb=IC50/(1+(A/EC50A)), where A=concentration of reference agonist in the assay, and EC50A=EC50 value of the reference agonist).

Assay [4] concerns the target 5-HT6 serotoninergic receptors (Homo sapiens, UniProt P50406). Kind of assay: Cellular functional assay, 5-HT6 serotoninergic receptors. Particulars: agonist mode; percent of control specific agonist response. The format is cell-based. The gist of the method: as §1
In assay [5] the target is 5-HT7 serotoninergic receptors (Homo sapiens, UniProt P34969). Kind of assay: Cellular functional assay, 5-HT7 serotoninergic receptors. The format is cell-based. Particulars: agonist mode; percent of control specific agonist response. The gist of the method:
as §1

In assay [6] the target is T2, 5-HT2C serotoninergic receptors (Homo sapiens, UniProt P28335).
T2 sequence (P28335 33-458): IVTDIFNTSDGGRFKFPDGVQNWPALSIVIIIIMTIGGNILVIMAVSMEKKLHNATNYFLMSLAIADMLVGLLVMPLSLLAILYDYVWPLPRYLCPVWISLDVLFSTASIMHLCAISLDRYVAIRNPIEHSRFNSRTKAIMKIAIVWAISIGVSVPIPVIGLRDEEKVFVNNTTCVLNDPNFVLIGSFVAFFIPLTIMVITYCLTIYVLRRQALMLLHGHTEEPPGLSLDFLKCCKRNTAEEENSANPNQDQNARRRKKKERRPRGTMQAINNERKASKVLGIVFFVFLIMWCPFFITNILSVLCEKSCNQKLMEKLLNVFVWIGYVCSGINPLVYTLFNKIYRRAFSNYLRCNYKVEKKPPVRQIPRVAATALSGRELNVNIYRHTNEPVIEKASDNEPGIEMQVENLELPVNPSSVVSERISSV
Kind of assay: Cellular functional assay, 5-HT2C serotoninergic receptors. It counts as cell-based. The procedure: as §2, §3, §4

Assay [7] has as its target T3, 5-HT reuptake (rat brain synaptosomes) (Rattus norvegicus, UniProt P31652).
T3 construct: measuring [^3H]5-HT incorporation into rat brain synaptosomes; from tissue; host or cells: rat brain synaptosomes
Kind of assay: 5-HT reuptake, [3H]5-HT incorporation into rat brain synaptosomes. The format is biochemical. Particulars: 15 min/37° C., read-out: SERT IC50. How it is done:
5-HT reuptake was tested according to Perovic, S. and Muller, W.E.G. (1995) Arzneim-Forsch. Drug Res., 45: 1145-1148 by measuring [^3H]5-HT incorporation into rat brain synaptosomes. Assay conditions are as follows:
Tracer: [^3H]5-HT (0.2 μCi/ml)
Incubation: 15 min/37° C.

Assay [8] concerns the target 5-HT2A serotoninergic receptors (Homo sapiens, UniProt P28223). Kind of assay: Cellular functional assay, 5-HT2A serotoninergic receptors. The format is cell-based. The gist of the method:
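Response expressed as percent of control specific agonist response; EC50 or IC50 from Hill-equation non-linear regression on mean replicate values. For antagonists, apparent Kb derived by modified Cheng-Prusoff using reference agonist concentration and its EC50.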

[9] abbreviates: agonist mode, percent of control specific agonist response.

5-HT7 serotoninergic receptors, sequence (P34969 whole entry): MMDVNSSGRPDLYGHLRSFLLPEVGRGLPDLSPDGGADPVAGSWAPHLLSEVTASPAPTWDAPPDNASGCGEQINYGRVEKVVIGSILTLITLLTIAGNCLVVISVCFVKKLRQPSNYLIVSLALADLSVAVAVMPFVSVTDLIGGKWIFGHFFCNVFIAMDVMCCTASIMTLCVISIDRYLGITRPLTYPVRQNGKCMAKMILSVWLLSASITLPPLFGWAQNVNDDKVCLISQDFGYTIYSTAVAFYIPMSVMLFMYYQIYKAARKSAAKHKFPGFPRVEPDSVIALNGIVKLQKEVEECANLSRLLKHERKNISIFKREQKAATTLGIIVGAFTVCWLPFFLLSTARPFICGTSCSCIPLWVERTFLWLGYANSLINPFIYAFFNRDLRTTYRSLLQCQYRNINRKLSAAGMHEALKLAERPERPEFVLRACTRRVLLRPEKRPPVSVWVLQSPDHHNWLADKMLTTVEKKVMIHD
5-HT6 serotoninergic receptors, sequence (P50406 whole entry): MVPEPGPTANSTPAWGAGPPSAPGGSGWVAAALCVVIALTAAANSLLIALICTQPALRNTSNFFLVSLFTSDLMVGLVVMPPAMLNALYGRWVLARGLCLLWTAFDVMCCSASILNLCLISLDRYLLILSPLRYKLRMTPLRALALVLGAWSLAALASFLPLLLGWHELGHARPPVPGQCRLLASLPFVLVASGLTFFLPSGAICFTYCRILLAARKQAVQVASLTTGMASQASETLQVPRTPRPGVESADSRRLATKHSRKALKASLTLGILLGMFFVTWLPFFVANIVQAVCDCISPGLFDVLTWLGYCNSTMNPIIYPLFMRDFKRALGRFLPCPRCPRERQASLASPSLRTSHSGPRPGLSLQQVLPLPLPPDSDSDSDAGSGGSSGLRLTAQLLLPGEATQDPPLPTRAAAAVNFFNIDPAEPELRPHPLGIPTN
5-HT2A serotoninergic receptors, sequence (P28223 whole entry): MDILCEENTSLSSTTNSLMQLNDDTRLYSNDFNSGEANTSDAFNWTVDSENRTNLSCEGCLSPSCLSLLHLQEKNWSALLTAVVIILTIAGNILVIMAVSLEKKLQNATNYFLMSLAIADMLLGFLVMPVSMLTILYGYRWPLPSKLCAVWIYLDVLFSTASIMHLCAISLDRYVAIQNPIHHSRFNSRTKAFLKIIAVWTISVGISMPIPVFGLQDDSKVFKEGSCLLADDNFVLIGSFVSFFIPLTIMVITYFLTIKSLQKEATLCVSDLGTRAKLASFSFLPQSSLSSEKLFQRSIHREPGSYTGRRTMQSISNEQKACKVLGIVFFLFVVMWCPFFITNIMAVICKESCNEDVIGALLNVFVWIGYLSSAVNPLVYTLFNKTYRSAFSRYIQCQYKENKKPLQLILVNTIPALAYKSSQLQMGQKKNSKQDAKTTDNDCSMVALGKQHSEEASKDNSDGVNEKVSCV
D2 dopaminergic receptors, sequence (P14416 whole entry): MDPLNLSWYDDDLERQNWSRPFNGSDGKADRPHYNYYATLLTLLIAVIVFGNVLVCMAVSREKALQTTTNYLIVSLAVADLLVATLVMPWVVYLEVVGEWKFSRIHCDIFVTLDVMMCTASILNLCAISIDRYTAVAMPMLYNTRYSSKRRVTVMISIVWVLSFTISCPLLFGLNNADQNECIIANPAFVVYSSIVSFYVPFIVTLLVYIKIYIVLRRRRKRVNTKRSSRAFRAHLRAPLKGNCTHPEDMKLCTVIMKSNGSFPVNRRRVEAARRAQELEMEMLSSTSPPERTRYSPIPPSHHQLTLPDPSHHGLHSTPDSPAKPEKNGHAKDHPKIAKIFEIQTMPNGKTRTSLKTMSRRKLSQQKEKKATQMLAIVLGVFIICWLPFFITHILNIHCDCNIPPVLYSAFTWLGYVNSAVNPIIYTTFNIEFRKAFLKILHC
D3 dopaminergic receptors, sequence (P35462 whole entry): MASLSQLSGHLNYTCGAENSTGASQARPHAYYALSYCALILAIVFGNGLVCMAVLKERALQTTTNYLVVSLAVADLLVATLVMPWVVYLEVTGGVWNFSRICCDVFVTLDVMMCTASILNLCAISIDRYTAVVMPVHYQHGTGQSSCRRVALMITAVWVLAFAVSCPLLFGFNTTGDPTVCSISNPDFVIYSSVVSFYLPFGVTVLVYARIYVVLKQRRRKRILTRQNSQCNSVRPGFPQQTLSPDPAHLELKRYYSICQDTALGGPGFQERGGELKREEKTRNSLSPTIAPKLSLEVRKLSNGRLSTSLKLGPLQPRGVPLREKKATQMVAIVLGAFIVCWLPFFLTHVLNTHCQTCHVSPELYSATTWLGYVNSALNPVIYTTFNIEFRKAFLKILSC
T3 sequence (P31652 whole entry): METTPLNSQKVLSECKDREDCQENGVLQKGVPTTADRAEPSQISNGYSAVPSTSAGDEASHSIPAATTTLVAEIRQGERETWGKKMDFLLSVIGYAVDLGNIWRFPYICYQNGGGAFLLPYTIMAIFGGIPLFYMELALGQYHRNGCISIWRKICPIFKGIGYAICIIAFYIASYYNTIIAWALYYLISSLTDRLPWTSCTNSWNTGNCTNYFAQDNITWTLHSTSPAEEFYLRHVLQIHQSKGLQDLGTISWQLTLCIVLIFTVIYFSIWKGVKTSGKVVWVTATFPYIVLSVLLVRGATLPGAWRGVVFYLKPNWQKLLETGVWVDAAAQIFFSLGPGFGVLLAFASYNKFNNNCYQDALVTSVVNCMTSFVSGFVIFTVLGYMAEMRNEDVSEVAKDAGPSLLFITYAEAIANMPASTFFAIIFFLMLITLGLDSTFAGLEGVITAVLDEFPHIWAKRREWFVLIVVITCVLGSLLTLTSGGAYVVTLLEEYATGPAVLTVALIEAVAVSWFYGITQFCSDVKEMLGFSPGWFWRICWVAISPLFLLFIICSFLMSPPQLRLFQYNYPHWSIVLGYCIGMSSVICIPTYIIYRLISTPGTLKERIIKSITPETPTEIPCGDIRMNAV

For the molecule `O=S(=O)(NCC1CN(CCOc2cccc3ccccc23)C1)c1ccc2ccccc2c1` [Compound 122, N-[[1-[2-(1-Naphthyloxy)ethyl]azetidin-3-yl]methyl]naphthalene-2-sulphonamide], in assay [1], the “D2 ag [%]” value is on record as 33% and the “D2 antag [%]” value is 62%. For the same molecule, in assay [2], the “D3 ag [%]” value turned out to be 38% and the “D3 antag [%]” value is listed as 56%. In addition, in assay [3], the “5-HT1A ag [%]” value was 35%. In assay [4], the “5-HT6 ag [%]” value worked out at 0%. In addition, the “5-HT7 ag [%]” value in assay [5] is 21%. Also, in assay [6] (setting [9]), the “5-HT2C ag [%]” value came to 78%. The “5-HT2C antag [%]” value in assay [6] (antagonist mode) was −10%.
`O=S(=O)(NCC1CCN(CCOc2cccc3ccccc23)C1)c1ccc2ccccc2c1` (stereo not drawn) [Compound 124, N-[[1-[2-(1-Naphthyloxy)ethyl]pyrrolidin-3-yl]methyl]naphthalene-2-sulphonamide]: in assay [1], the “D2 ag [%]” value is 33% and the “D2 antag [%]” value is reported as 44%. In assay [2], the “D3 ag [%]” value turned out to be 11% and the “D3 antag [%]” value is reported as 43%. The “5-HT1A ag [%]” value in assay [3] is listed as 16%. The “5-HT6 ag [%]” value in assay [4] amounted to 7%. In addition, the “5-HT7 ag [%]” value in assay [5] turned out to be 10%.
Consider `Cc1cccc(S(=O)(=O)NC2CCN(CCCc3c[nH]c4ccc(Cl)cc34)C2)c1` (stereo not drawn) [Compound 86, N-[1-[3-(5-chloro-1H-indol-3-yl)propyl]pyrrolidin-3-yl]-3-methyl-benzenesulphonamide], for which, in assay [7], the pIC50 is 7.77.
Take `Cc1c(S(=O)(=O)NCC2CN(CCCc3noc4cc(F)ccc34)C2)sc2ccc(Cl)cc12` [Compound 131, 5-Chloro-N-[[1-[3-(6-fluoro-1,2-benzoxazol-3-yl)propyl]azetidin-3-yl]-methyl]-3-methyl-benzothiophene-2-sulphonamide]: in assay [1], the “D2 ag [%]” value came to 5% and the “D2 antag [%]” value turned out to be 20%. Also, in assay [2], the “D3 ag [%]” value is given as −13% and the “D3 antag [%]” value was found to be 55%. For the same molecule, the “5-HT2A ag [%]” value in assay [8] (setting [9]) is −2%. Besides, in assay [4], the “5-HT6 ag [%]” value is given as 3%. Moreover, the “5-HT7 ag [%]” value in assay [5] came out at 1%.
For the molecule `Cc1c(S(=O)(=O)NCC2CN(CCCc3noc4cc(F)ccc34)C2)sc2ccc(F)cc12` [Compound 130, 5-Fluoro-N-[[1-[3-(6-fluoro-1,2-benzoxazol-3-yl)propyl]azetidin-3-yl]methyl]-3-methyl-benzothiophene-2-sulphonamide], in assay [1], the “D2 ag [%]” value amounted to 6% and the “D2 antag [%]” value turned out to be 34%. Moreover, in assay [2], the “D3 ag [%]” value came out at 5% and the “D3 antag [%]” value is 61%. Moreover, in assay [8] (setting [9]), the “5-HT2A ag [%]” value stood at 0%. Further, the “5-HT6 ag [%]” value in assay [4] worked out at 4%. In addition, the “5-HT7 ag [%]” value in assay [5] worked out at 0%.
As to `O=S(=O)(NCC1CN(CCCc2noc3cc(F)ccc23)C1)c1ccc2ccccc2c1` [Compound 134, N-[[1-[3-(6-Fluoro-1,2-benzoxazol-3-yl)propyl]azetidin-3-yl]methyl]-naphthalene-2-sulphonamide], in assay [1], the “D2 ag [%]” value is listed as 6% and the “D2 antag [%]” value is reported as 47%. In assay [8], the “5-HT2A ag [%]” value is given as −3%. Also, the “5-HT6 ag [%]” value in assay [4] amounted to 4%. Further, the “5-HT7 ag [%]” value in assay [5] came to 1%.
